# According to PubChem BioAssay (NCI):
#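 Cultured in 96-well plates, cells were exposed to test compound for 48 hours across five concentrations. Here, GI50 denotes the concentration required for 50% inhibition of growth. The concentration for full growth arrest is given as TGI.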
# Columns and labels:
# Test in all cases: inhibition of tumour cell growth, NCI panel, 48 h
# [1] = tested on: UO-31 renal
# [2] = tested on: OVCAR-4 ovarian
# [3] = tested on: LOX IMVI melanoma
# [4] = tested on: NCI-H522 lung
# [5] = tested on: TK-10 renal
# [6] = tested on: NCI-H460 lung
# [7] = tested on: UACC-62 melanoma
# [8] = tested on: M14 melanoma
# [9] = tested on: MOLT-4 leukemia
# [10] = tested on: U251 CNS
# [11] = tested on: SK-MEL-2 melanoma
# [12] = tested on: UACC-257 melanoma
# [13] = tested on: CCRF-CEM leukemia
# [14] = tested on: IGROV1 ovarian
# [15] = tested on: PC-3 prostate
# [16] = tested on: HOP-62 NSCLC
# [17] = tested on: SNB-75 CNS
# [18] = tested on: OVCAR-5 ovarian
# [19] = tested on: SNB-19 CNS
# [20] = tested on: EKVX NSCLC
# [21] = tested on: MDA-MB-231 breast
# [22] = tested on: A549 NSCLC
# [23] = tested on: RPMI-8226 leukemia
# [24] = tested on: SR leukemia
# [25] = tested on: ACHN renal
# [26] = tested on: SN12C renal
# [27] = tested on: HCC-2998 colon
# [28] = tested on: SK-MEL-28 melanoma
# [29] = tested on: HCT-15 colon
# [30] = tested on: NCI/ADR-RES ovarian
# [31] = tested on: OVCAR-3 ovarian
# [32] = tested on: SF-295 CNS
# [33] = tested on: SW-620 colon
# [34] = tested on: NCI-H23 lung
# [35] = tested on: NCI-H226 lung
# [36] = tested on: SF-539 CNS
# [37] = tested on: OVCAR-8 ovarian
# [38] = tested on: RXF 393 renal
# [39] = tested on: SF-268 CNS
# [40] = tested on: MDA-MB-435
# [41] = tested on: HL-60(TB) leukemia
# [42] = tested on: HT29 colon
# [43] = tested on: A498 renal
# [44] = tested on: CAKI-1 renal
# [45] = tested on: HCT-116 colon
# [46] = tested on: KM12 colon
# [47] = tested on: MCF7 breast
# [48] = tested on: SK-MEL-5 melanoma
# [49] = tested on: HS 578T breast
# [50] = tested on: SK-OV-3 ovarian
# [51] = tested on: K-562 leukemia
# [52] = tested on: HOP-92 NSCLC
# [53] = tested on: BT-549 breast
# [54] = tested on: 786-0 renal
# [55] = tested on: COLO 205 colon
# [56] = tested on: T-47D breast
# [57] = tested on: DU-145 prostate
smiles,measurement,setting,value
O=C(Nc1cccc(-n2ccc3c(NC(=O)c4ccccc4)nccc32)c1)c1ccc(N2CCOCC2)c(C(F)(F)F)c1,GI50,[1],53.7 nM
same,TGI,[1],37800 nM
same,GI50,[2],168 nM
same,TGI,[2],> 70700 nM
same,GI50,[3],42.7 nM
same,TGI,[3],> 100000 nM
same,GI50,[4],31.9 nM
same,TGI,[4],545 nM
same,GI50,[5],78.2 nM
same,TGI,[5],> 100000 nM
same,GI50,[6],37 nM
same,TGI,[6],26900 nM
same,GI50,[7],41.4 nM
same,TGI,[7],22500 nM
same,GI50,[8],38.6 nM
same,TGI,[8],> 100000 nM
same,GI50,[9],128 nM
same,TGI,[9],> 100000 nM
same,GI50,[10],47.4 nM
same,TGI,[10],> 100000 nM
same,GI50,[11],253 nM
same,TGI,[11],20100 nM
same,GI50,[12],2360 nM
same,TGI,[12],> 100000 nM
same,GI50,[13],61.8 nM
same,TGI,[13],> 100000 nM
same,GI50,[14],57 nM
same,TGI,[14],> 75400 nM
same,GI50,[15],53.8 nM
same,TGI,[15],> 100000 nM
same,GI50,[16],53.6 nM
same,TGI,[16],> 94700 nM
same,GI50,[17],23 nM
same,TGI,[17],25900 nM
same,GI50,[18],188 nM
same,TGI,[18],> 100000 nM
same,GI50,[19],58 nM
same,TGI,[19],> 100000 nM
same,GI50,[20],212 nM
same,TGI,[20],> 100000 nM
same,GI50,[21],127 nM
same,TGI,[21],3420 nM
same,GI50,[22],51.3 nM
same,TGI,[22],> 100000 nM
same,GI50,[23],54.5 nM
same,TGI,[23],13100 nM
same,GI50,[24],45 nM
same,TGI,[24],> 100000 nM
same,GI50,[25],85.3 nM
same,TGI,[25],> 63500 nM
same,GI50,[26],134 nM
same,TGI,[26],> 100000 nM
same,GI50,[27],61.4 nM
same,GI50,[28],43.6 nM
same,TGI,[28],> 100000 nM
same,GI50,[29],37 nM
same,TGI,[29],> 64700 nM
same,GI50,[30],35.2 nM
same,TGI,[30],> 51400 nM
same,GI50,[31],23.3 nM
same,TGI,[31],50.4 nM
same,GI50,[32],30.6 nM
same,TGI,[32],490 nM
same,GI50,[33],41.2 nM
same,TGI,[33],> 100000 nM
same,GI50,[34],67.9 nM
same,TGI,[34],> 90100 nM
same,GI50,[35],82.7 nM
same,TGI,[35],> 92900 nM
same,GI50,[36],35.8 nM
same,TGI,[36],3420 nM
same,GI50,[37],55 nM
same,TGI,[37],> 100000 nM
same,GI50,[38],33.3 nM
same,TGI,[38],2690 nM
same,GI50,[39],62.5 nM
same,TGI,[39],> 100000 nM
same,GI50,[40],19.1 nM
same,TGI,[40],46 nM
same,GI50,[41],39.3 nM
same,TGI,[41],4820 nM
same,GI50,[42],38 nM
same,GI50,[43],35.7 nM
same,TGI,[43],4720 nM
same,GI50,[44],46.2 nM
same,TGI,[44],14800 nM
same,GI50,[45],37.1 nM
same,TGI,[45],> 100000 nM
same,GI50,[46],36.4 nM
same,TGI,[46],1360 nM
same,GI50,[47],39.7 nM
same,TGI,[47],> 73500 nM
same,GI50,[48],34.9 nM
same,TGI,[48],169 nM
same,GI50,[49],272 nM
same,TGI,[49],98600 nM
same,GI50,[50],32.6 nM
same,TGI,[50],2660 nM
same,GI50,[51],38.7 nM
same,TGI,[51],> 100000 nM
same,GI50,[52],179 nM
same,TGI,[52],6870 nM
same,GI50,[53],183 nM
same,TGI,[53],> 67700 nM
Cc1ccc2c(c1)C(C)Cc1c(ncnc1-n1cnc3ccccc31)N2C (stereo not drawn),GI50,[1],939 nM
same,TGI,[1],17900 nM
same,GI50,[2],2510 nM
same,TGI,[2],22500 nM
same,GI50,[54],737 nM
same,TGI,[54],19800 nM
same,GI50,[3],705 nM
same,TGI,[3],16200 nM
same,GI50,[4],204 nM
same,TGI,[4],10800 nM
same,GI50,[5],13100 nM
same,TGI,[5],29400 nM
same,GI50,[6],380 nM
same,TGI,[6],12000 nM
same,GI50,[8],242 nM
same,TGI,[8],15700 nM
same,GI50,[9],426 nM
same,TGI,[9],15000 nM
same,GI50,[10],415 nM
same,TGI,[10],15900 nM
same,GI50,[11],547 nM
same,TGI,[11],21900 nM
same,GI50,[13],267 nM
same,TGI,[13],12600 nM
same,GI50,[14],1170 nM
same,TGI,[14],28400 nM
same,GI50,[55],285 nM
same,TGI,[55],818 nM
same,GI50,[15],284 nM
same,TGI,[15],36400 nM
same,GI50,[16],433 nM
same,TGI,[16],16000 nM
same,GI50,[17],300 nM
same,TGI,[17],20100 nM
same,GI50,[19],537 nM
same,TGI,[19],21000 nM
same,GI50,[20],511 nM
same,TGI,[20],17500 nM
same,GI50,[21],809 nM
same,TGI,[21],18200 nM
same,GI50,[22],973 nM
same,TGI,[22],17300 nM
same,GI50,[23],337 nM
same,TGI,[23],15900 nM
same,GI50,[24],64.9 nM
same,TGI,[24],11000 nM
same,GI50,[25],953 nM
same,TGI,[25],20300 nM
same,GI50,[26],915 nM
same,TGI,[26],21900 nM
same,GI50,[27],1240 nM
same,TGI,[27],13600 nM
same,GI50,[28],12300 nM
same,TGI,[28],29000 nM
same,GI50,[29],414 nM
same,TGI,[29],12700 nM
same,GI50,[30],275 nM
same,TGI,[30],14800 nM
same,GI50,[31],313 nM
same,TGI,[31],10800 nM
same,GI50,[32],189 nM
same,TGI,[32],11800 nM
same,GI50,[33],281 nM
same,TGI,[33],17000 nM
same,GI50,[34],727 nM
same,TGI,[34],18000 nM
same,GI50,[35],3500 nM
same,TGI,[35],27400 nM
same,GI50,[36],337 nM
same,TGI,[36],13500 nM
same,GI50,[37],592 nM
same,TGI,[37],32700 nM
same,GI50,[39],1190 nM
same,TGI,[39],17700 nM
same,GI50,[41],255 nM
same,TGI,[41],705 nM
same,GI50,[42],340 nM
same,TGI,[42],12100 nM
same,GI50,[43],220 nM
same,TGI,[43],17100 nM
same,GI50,[44],337 nM
same,TGI,[44],17800 nM
same,GI50,[45],407 nM
same,TGI,[45],11900 nM
same,GI50,[46],434 nM
same,TGI,[46],16600 nM
same,GI50,[47],98.6 nM
same,TGI,[47],13100 nM
same,GI50,[48],434 nM
same,TGI,[48],10200 nM
same,GI50,[49],376 nM
same,TGI,[49],28900 nM
same,GI50,[50],475 nM
same,TGI,[50],13500 nM
same,GI50,[51],80.1 nM
same,TGI,[51],14100 nM
same,GI50,[52],6760 nM
same,TGI,[52],27700 nM
same,GI50,[56],601 nM
same,TGI,[56],32200 nM
same,GI50,[53],1370 nM
same,TGI,[53],20600 nM
same,GI50,[57],529 nM
same,TGI,[57],14400 nM
